In this test the test system is B103 cell line. Description: In vitro percent protective effect against Amyloid Beta(A beta)-induced neurotoxicity in B103 cells. The test is classed as functional, Rattus norvegicus. On the set-up: concentration or dose not given beside the values.

`CC(=O)O[C@@H]1C[C@@]2(C)C(CC[C@]3(C)C2CC=C2C4[C@@H](C)[C@H](C)CC[C@]4(C(=O)O)CC[C@]23C)[C@](C)(CO)[C@H]1O` (stereo partly specified): the Protection amounted to 22%. The result for `C[C@@H]1CC[C@]2(C(=O)O)CC[C@]3(C)C(=CCC4[C@@]5(C)CCCC(C)(C)C5CC[C@]43C)C2[C@H]1C` (stereo partly specified) reads 40%; that for `C[C@@H]1CC[C@]2(C(=O)O)CC[C@]3(C)C(=CCC4[C@@]5(C)C[C@@H](O)[C@@H]6OC(C)(C)OC[C@@]6(C)C5CC[C@]43C)C2[C@H]1C` (stereo partly specified), 66%; that for `C[C@H]1[C@H](C)CC[C@]2(C(=O)O)CC[C@]3(C)C(=CC[C@@H]4[C@@]5(C)CC[C@H](O)[C@@](C)(CO)[C@@H]5CC[C@]43C)[C@H]12`, 87%. Under `C[C@H]1[C@H](C)CC[C@]2(C(=O)O[C@@H]3O[C@H](CO[C@@H]4O[C@H](CO)[C@@H](O[C@@H]5O[C@H](C)[C@H](O)[C@@H](O)[C@H]5O)[C@H](O)[C@H]4O)[C@@H](O)[C@H](O)[C@H]3O)CC[C@]3(C)C(=CC[C@@H]4[C@@]5(C)C[C@@H](O)[C@H](O)[C@@](C)(CO)[C@@H]5CC[C@]43C)[C@H]12` [ASIATICOSIDE] stands 24%; under `CCCCCCCCOCOC(=O)[C@]12CC[C@@H](C)[C@H](C)C1C1=CCC3[C@@]4(C)CC(O)[C@H](O)[C@@](C)(CO)C4CC[C@@]3(C)[C@]1(C)CC2` (stereo partly specified), 22%. The result for `C[C@@H]1CC[C@]2(C(=O)OC3CCCCO3)CC[C@]3(C)C(=CCC4[C@@]5(C)C[C@@H](O)[C@H](O)[C@@](C)(CO)C5CC[C@]43C)C2[C@H]1C` (stereo partly specified) reads 92%. The molecule `C[C@@H]1CC[C@]2(C(=O)O)CC[C@]3(C)C(=CCC4[C@@]5(C)CC(=O)[C@H](O)[C@@](C)(CO)C5CC[C@]43C)C2[C@H]1C` (stereo partly specified) returned a Protection of 50%. The result for `C[C@H]1[C@H](C)CC[C@]2(C(=O)O)CC[C@]3(C)C(=CC[C@@H]4[C@@]5(C)C[C@@H](O)[C@H](O)[C@@](C)(CO)[C@@H]5CC[C@]43C)[C@H]12` [ASIATIC ACID] reads 97%; that for `COC(=O)[C@]12CC[C@@H](C)[C@H](C)C1C1=CCC3[C@@]4(C)C[C@@H](O)[C@H](O)[C@@](C)(CO)C4CC[C@@]3(C)[C@]1(C)CC2` (stereo partly specified), 58%.

For `C[C@H]1[C@H](C)CC[C@]2(C(=O)O)CC[C@]3(C)C(=CC[C@@H]4[C@@]5(C)C[C@@H](O)[C@H](O)[C@@](C)(CO)[C@@H]5[C@H](O)C[C@]43C)[C@H]12` [MADECASSIC ACID], the Protection stood at 56%.

The values are drawn from ChEMBL document CHEMBL1132753, “Structure-activity relationship study of asiatic acid derivatives against beta amyloid (A beta)-induced neurotoxicity” (2000).
